In patent US20160295854A1, “COMPOSITION AND METHOD FOR EX-VIVO IMMUNOMODULATION AND/OR PRESERVATION OF ORGANS, METHODS AND USE” (UNIAO BRASILEIRA DE EDUCACAO E ASSISTENCIA , MANTENEDORA DA …, priority 2014, published 2016):

Columns and labels:
splenocytes = test: Epitopes mapping of T cells (splenocytes re-stimulated in vitro); assay type: cell-based, BALB/c mice; conditions: 5 μg/ml peptide or 60 μg/ml Hsp70, 24 h; for CD4+Foxp3+ (Tregs) cells percentage (FIG. 16 A): compared with DMSO
STAT3 = test: p-STAT3 intracellular marking in BMDCs; assay type: cell-based, mice (Mus musculus); conditions: BMDCs, 30 μM inhibitor previous to Hsp70
Description: As positive control, the cells were stimulated with […] of phorbol myristate acetate (PMA) for 30 minutes. After the stimuli in the periods mentioned, the cells were fixed with Cytofix Buffer (BD Biosciences) for 10 minutes at 37° C. and permeated with Phosflow Perm Buffer III (BD Biosciences) for 30 minutes on ice. After such procedures, the cells were marked for p-ERK1/2 and p-STAT3.
For analyzing the recipients T cells, the cells were marked for CD4 (GK1.5), CD8a (53-6.7), Foxp3 (MF23), Ki67 (B56) achieved from BD Biosciences. […] The levels of phosphorylated ERK and STAT3 were determined using antibodies for p-ERK1/2 and p-STAT3 (BD Biosciences) in BMDCs previously fixed and permeablized. The cells were subsequently analyzed in the flow cytometer FACSCanto II (BD Biosciences) with the BD FACSDiva (BD Biosciences) program. The data achieved were analyzed with the Flowjo program (version 7.6.5, Tree Star).
The p-ERK expression was measured by flow cytometry. […] The p-STAT3 expression was measured by flow cytometry. […] After that, the IL-10 mRNA levels were measured by Real-time PCR and the concentration of this cytokine by flow cytometry, using the kit CBA Mouse Inflammation. […] After that, the MARCH-I mRNA levels were analyzed by Real-time PCR. […]

[1] = tested on: cutaneous allograft (B6 donor skin in BALB/c recipients); test: Murine model of cutaneous allograft, graft immersion-treatment; assay type: in vivo, mice (Mus musculus)
Text: A method for treating grafts, including allografts, was developed by the inventors of the present invention. Thus, the method treats the grafts (that may be full organs) instead of recipient that will receive the graft, using as tool a classic murine model of skin transplantation and well established. Such method, to the light of the inventors, may be considered as new and inventive. The said model consists of a complete incompatibility of MHC molecules and was described by BILLINGHAM & MEDAWAR (1951).
BALB/c recipients, which express the MHC II I-A^d molecule, are anaesthetized and the dorsal stem hairs are removed. In the waxed area, 1 cm^2 of the skin was removed in each recipient mouse and the donor tail skin was sutured in the exposed area. The animals are maintained in individual cages and daily monitored. The graft rejection is confirmed by observing the cyanosis, erythema, erosion and cutaneous graft loss.
This model consists of a complete incompatibility of MHC molecules and was described by BILLINGHAM & MEDAWAR (1951). In this model, the donor mouse B6, which expresses the MHC II I-A^b molecule, is sacrificed. […] After this period, the grafts were sutured in the BALB/c recipients' back, who express the MHC II I-A^d molecule, and the rejection clinical progression is daily monitored.
After that, the grafts were sutured in the BALB/c (I-Ad) animals' back. The animals were daily monitored. ***, p<0.0001. n=22-24 mice per group. The results achieved putting the seven independent experiments together.
After this, these grafts were sutured in BALB/c recipients WT and their rejection were daily monitored.
After this, the grafts were sutured in the BALB/c (I-Ad) animals' back. The animals were daily monitored. *, p<0.05. n=4 mice per group.

[2] = tested on: cutaneous allograft (B6 donor skin in BALB/c recipients); test: Cutaneous allograft model, graft immersion followed by topic application; assay type: in vivo, mice (Mus musculus); conditions: immersion plus 7 days of topic application (group '- 7 days')
Text: That is, animals that received grafts treated with Hsp70 receive the local application of a Hsp70 solution and the same for OVA.
After this, the grafts were sutured in BALB/c (I-A^d) animals' back. […] The animals were daily monitored. (A) Schematic representation of the treatment strategy used in the experiment. (B) Photographic record of the clinical progression of the acute rejection in groups Hsp70 and OVA. […] Data achieved from previous experiments.

MARCH-I = MARCH-I mRNA in DCs by real time PCR; assay type: cell-based, mice (Mus musculus); conditions: DCs from IL-10 knockout animals, 24 h; compared with DCs WT
Description: The supernatants were collected and used for analyzing cytokine. The cells were further treated with 20 ng/ml of Rapamycin (Cell Signaling), 1 μg/ml of Cyclosporine A (Roche) or 20 ng/ml of IL-10 recombinant murine (R&D System) for 24 h and the total RNA was removed.
The total RNA was isolated from the DCs treated using the kit RNAeasy (Qiagen), according to the manufacturer instructions. The total purified RNA concentration was determined with the kit Qubit® RNA Assay Kit (Invitrogen), read in the Qubit® Fluorometer (Invitrogen). 50 ng of the RNA had reverse transcriptase with 100 U of Sensiscript (Qiagen). DNA concentrations were determined with the kit Qubit® dsDNA HS Assay (Invitrogen), read in the Qubit® Fluorometer (Invitrogen). In a final volume of 10 μL, 8 ng of cDNA were applied using some assays Taqman® Gene Expression (Applied Biosystems): IL10 (Mm00439614_m1), March1 (Mm00613524_m1) and β-actin (4352933E), according to the manufacturer recommendations.
The quantitative real time PCR was performed in the instrument StepOne™ Real-Time PCR System (Applied Biosystems). The relative levels of mRNA were calculated according to the comparative method of Ct, described by […] & LIVAK (2008). The β-actin constituent gene was used as setter. Non-treated DCs served as reference for OVA or Hsp70-treated DCs.
After that, IL-10 mRNA levels were analyzed by Real-time PCR. The β-actin was used as a setter. The IL-10 concentration was measured in the cultures supernatant by flow cytometry. […] (C) As in A, however the MARCH-I mRNA levels were analyzed by Real-time PCR. […] DCs IL-10 KO were also treated with Recombinant IL-10. All treatments were performed for 24 h and MARCH-I mRNA levels were analyzed by Real-time PCR. […] After this period, grafts were sutured in the BALB/c animals' back and the acceptance was daily monitored. Graphs expressed on average ±SEM. *, p<0.05; **, p<0.01; ***, […]. n=3-5 mice per group. Representative results of 3 independent experiments.
After this period, the MARCH-I expression increase was analyzed by Real-time PCR.

Molecule: KYTAPEISARILMKL (Heat Shock Protein HSP70) [Peptide 5]
- CD4+Foxp3+ (Tregs) cells percentage (FIG. 16 A) (splenocytes): increase in the Tregs production

Molecule: COc1cccc(-c2cc(=O)c3ccccc3o2)c1N [PD98059, reference compound]
- STAT3 activation against the stimulus with Hsp70 after ERK inhibition (FIG. 13 E) (STAT3): removed the STAT3 activation

Molecule: VGGSTRMPAVTDLVK [Peptide 2]
- IL-10 production by splenocytes (FIG. 16 B) (splenocytes): small increase
- CD4+Foxp3+ (Tregs) cells percentage (FIG. 16 A) (splenocytes): quite significant increase
- graft acceptance after immersion with Hsp70 or peptides (FIG. 17) ([1]; 60 μg/ml Hsp70 or 15 μg/ml peptide, 60 minutes at 4° C., compared to OVA peptide and peptide 5): strong tendency in lengthen the graft acceptance

B1: OVA: egg albumin (OVA), control protein (protein, UniProt P01012 2-386, looked up)
Ovalbumin: GSIGAASMEFCFDVFKELKVHHANENIFYCPIAIMSALAMVYLGAKDSTRTQINKVVRFDKLPGFGDSIEAQCGTSVNVHSSLRDILNQITKPNDVYSFSLASRLYAEERYPILPEYLQCVKELYRGGLEPINFQTAADQARELINSWVESQTNGIIRNVLQPSSVDSQTAMVLVNAIVFKGLWEKAFKDEDTQAMPFRVTEQESKPVQMMYQIGLFRVASMASEKMKILELPFASGTMSMLVLLPDEVSGLEQLESIINFEKLTEWTSSNVMEERKIKVYLPRMKMEEKYNLTSVLMAMGITDVFSSSANLSGISSAESLKISQAVHAAHAEINEAGREVVGSAEAGVDAASVSEEFRADHPFLFCIKHIATNAVLFFGRCVSP
- Survival average ([1]; graft immersed in 60 μg/mL for 60 minutes, seven independent experiments): 14.0 days
- Survival median [2]: 14.0 days
- Survival ([2]; individual mice): 16 days

B2: recombinant murine IL-10: IL-10 recombinant murine (R&D System), positive control (protein, UniProt P18893 19-178, looked up)
Interleukin-10: SRGQYSREDNNCTHFPVGQSHMLLELRTAFSQVKTFFQTKDQLDNILLTDSLMQDFKGYLGCQALSEMIQFYLVEVMPQAEKHGPEIKEHLNSLGEKLKTLRMRLRRCHRFLPCENKSKAVEQVKSDFNKLQDQGVYKAMNEFDIFINCIEAYMMIKMKS
- MARCH-I mRNA levels in DCs IL-10 KO (FIG. 11 D) (MARCH-I): reestablished partially
